Biological target: BRAF target protein with V600E mutation (Homo sapiens, UniProt P15056, V600E)
Experiment: MALDI-MSI displacement competitive binding on malignant melanoma tissue sections
Conditions: for Isotope Signal: 1 hour, MS/MS m/z 389.1
Description: (1) Making 10 micrometer sectioning of the frozen Human Malignant Melanoma tissues performed at −20° C. Thereafter, (2) sample preparation was preformed by slowly thawing and drying the tumor sections at room temperature. Then, the sections were immersed into methanol for 5 min and dried at room temperature. Correspondingly, frozen Human healthy tissue resected from lymphoid nodes were handled in the same way, and used as negative controls. (3) Drug incubation was performed for one hour by using unlabeled ligand, here Vemurafenib, at a concentration of 100 nM (nanomolar) to determine the binding of the ligand molecule to its protein target. […] During titration experiments, the concentration of stable isotope labeled Vemurafenib was 100 nM, 1 μM, 10 μM and 100 μM, (micro Molar), respectively. (4) After incubation, the sections were washed by PBS 3 times and then followed by washing with MilliQ water 3 consecutive times, and (5) mass spectra were obtained using a MALDI LTQ-Orbitrap XL instrument (Thermo Scientific, Germany), and compound signals were obtained by the orbitrap and ion trap. Image analysis was conducted using ImageQuest (Thermo Scientific, Germany). For histological analysis, both H&E staining and immuno-histochemical analysis using monoclonal antibody against BRAF V600E were conducted.
The frozen Human Malignant Melanoma tissues were resected from lymphoid nodes, constituting the tumor tissue. The tissue sections were sections with 10 μm (micro meter) slices thick by the use of a cryostat, performed at −20° C. After sectioning, the slices were slowly thawed and dried at room temperature. Then, the sections were immersed into methanol for 5 min and dried at room temperature. Correspondingly, frozen Human healthy tissue resected from lymphoid nodes was used as negative controls.
Incubation was made for one hour by using unlabeled Vemurafenib at a concentration of 100 nM (nanomolar) to determine the binding of the drug molecule to its protein target. […] The incubation time during competitive binding was 1 hour. […] During titration experiments, the concentration of stable isotope labeled Vemurafenib was 100 nM, 1 μM, 10 μM and 100 μM, (micro Molar), respectively.
After incubation, the sections were washed by PBS 3 times and then followed by washing with MilliQ water 3 consecutive times.
The mass spectra were obtained using a MALDI LTQ-Orbitrap XL instrument (Thermo Scientific, Germany). The compound signals were obtained by the orbitrap and ion trap. Image analysis was conducted using ImageQuest (Thermo Scientific, Germany). For histological analysis, both H&E staining and immuno-histochemical analysis using monoclonal antibody against BRAF V600E were conducted.
Binding intensity was calculated by identifying the area of biding from the mass spec image and the intensity read is calculated by the ImageQuest software of the instrument from the signal and background data.

BRAF target protein with V600E mutation, sequence (P15056 whole entry V600E): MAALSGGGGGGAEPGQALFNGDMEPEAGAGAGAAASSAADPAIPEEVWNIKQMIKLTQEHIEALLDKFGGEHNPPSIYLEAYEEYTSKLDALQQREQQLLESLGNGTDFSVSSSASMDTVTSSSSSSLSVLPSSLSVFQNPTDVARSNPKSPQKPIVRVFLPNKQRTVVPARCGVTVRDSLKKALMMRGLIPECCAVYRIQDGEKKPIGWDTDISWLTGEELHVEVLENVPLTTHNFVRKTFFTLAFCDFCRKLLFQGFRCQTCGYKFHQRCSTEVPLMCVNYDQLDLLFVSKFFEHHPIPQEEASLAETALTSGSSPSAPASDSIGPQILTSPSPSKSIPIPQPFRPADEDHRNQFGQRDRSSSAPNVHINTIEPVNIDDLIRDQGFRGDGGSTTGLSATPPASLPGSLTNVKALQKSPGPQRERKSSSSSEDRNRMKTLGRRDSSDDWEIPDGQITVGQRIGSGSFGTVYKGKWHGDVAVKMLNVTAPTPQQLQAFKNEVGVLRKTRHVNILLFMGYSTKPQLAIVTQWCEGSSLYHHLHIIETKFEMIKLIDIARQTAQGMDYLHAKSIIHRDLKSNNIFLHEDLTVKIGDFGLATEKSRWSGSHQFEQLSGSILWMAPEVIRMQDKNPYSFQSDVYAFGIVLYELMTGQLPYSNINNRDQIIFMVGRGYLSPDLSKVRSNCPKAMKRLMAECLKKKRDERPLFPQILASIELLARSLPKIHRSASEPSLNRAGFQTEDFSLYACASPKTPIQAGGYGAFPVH

Isotope Signal (0.1 μM ^13C-Vemurafenib co-incubated with 100 nM Vemurafenib): 326
Competition with 100 nM Vemurafenib (1 μM ^13C-Vemurafenib co-administered, m/z 389.1, V600E patient tissue): outcompeting the 100 nM Vemurafenib
Isotope Signal (1 μM ^13C-Vemurafenib co-incubated with 100 nM Vemurafenib): 3233
Isotope Signal (10 μM ^13C-Vemurafenib co-incubated with 100 nM Vemurafenib): 29870
Isotope Signal (100 μM ^13C-Vemurafenib co-incubated with 100 nM Vemurafenib): 259400
Substance: ^13C-Vemurafenib

— patent publication US10718760B2, “Method for drug binding analysis in a tissue sample” (Treat4Life AB, priority 2015, dated 2020)
